Results published in patent US20150079000A1, “Labelled Quinoxaline Derivatives as Multimodal Radiopharmaceuticals and Their Precursors” (INSTITUT NATIONAL DE LA SANTET DE LA RECHERCHE MEDICALE, priority 2012, published 2015).

Tested on: B16 murine melanoma tumours
Experiment: Ex vivo biodistribution of [18F]-labelled compounds
Format: in vivo, C57BL/6J mice
Description: All our studies were performed in accordance with French and European Economic Community (86-609, EEC) guidelines for care of laboratory animals. Protocols were performed under the authorization of the French Direction des Services Veterinaires (authorization no. CE 86-12). Male C57BL/6J mice were originating from Charles River laboratories and maintained at 21° C. with a 12 h/12 h light/dark cycle, fed with a breeding diet (diet A04 from Safe, Villemoisson, France) and received water ad libitum. For transplantation B16BL6 cell suspension were grown in a monolayer culture to confluence, after which cells were trypsinized, washed with phosphate buffer saline (PBS) and they were resuspended in PBS. Mice were anesthetized by isoflurane (4% for induction and 2±0.5% for maintaining in oxygen flux) inhalation. The primary tumour model was induced by subcutaneous injection of 3×10^5 melanoma B16B16 cells in 0.1 mL on the right shoulder of mice.
Ex vivo biodistribution studies: An ex vivo biodistribution study was performed for better comparison of [^18F](1) and [^18F](5). Experimentations were undertaken at day-10 or day-14 after cell inoculation (n=3-6/group). […] Tumours and major organs and tissues were promptly excised, harvested, weighted and their radioactivity counted using a calibrated γ-counter with a 400 to 600 keV energy window. After radioactive decay correction, results were expressed as percentage of injected dose per gram of tissue (% ID/g).

## CCN(CCNC(=O)c1cnc2cc(I)ccc2n1)CCOCCOCCOCC[18F] [[^18F](1)]
1 h p.i.
  % ID/g (tumour): 14.05 ± 1.42 % ID/g
  % ID/g Blood: 1.42 ± 0.32 % ID/g
  % ID/g Bones: 1.40±0.10 % ID/g
  % ID/g Brain: 1.82 ± 0.08 % ID/g
  % ID/g Ceacum: 7.27 ± 0.62 % ID/g
  % ID/g Colon + faeces: 7.17 ± 2.93 % ID/g
  % ID/g Eyes: 18.36 ± 4.74 % ID/g
  % ID/g Heart: 2.72 ± 0.18 % ID/g
  % ID/g Kidney: 3.46 ± 0.53 % ID/g
  % ID/g Liver: 2.56 ± 0.22 % ID/g
  % ID/g Lung: 1.86 ± 0.15 % ID/g
  % ID/g Muscle: 1.17 ± 0.12 % ID/g
  % ID/g Pancreas: 2.09 ± 0.42 % ID/g
  % ID/g Skin: 1.44 ± 0.19 % ID/g
  % ID/g Small intestine: 7.58 ± 1.80 % ID/g
  % ID/g Spleen: 3.72 ± 1.49 % ID/g
  % ID/g Stomach: 4.41 ± 1.36 % ID/g
  TBR Tumour-to-Blood Ratio: 10.24 ± 2.83
  TBoR Tumour-to-Bone Ratio: 10.11 ± 1.87
  TMR Tumour-to-Muscle Ratio: 12.12 ± 2.29
2 h p.i.
  % ID/g (tumour): 13.07 ± 1.22 % ID/g
  % ID/g Blood: 1.12 ± 0.24 % ID/g
  % ID/g Bones: 1.96 ± 0.51 % ID/g
  % ID/g Brain: 1.39 ± 0.25 % ID/g
  % ID/g Ceacum: 8.94 ± 1.78 % ID/g
  % ID/g Colon + faeces: 6.05 ± 1.72 % ID/g
  % ID/g Eyes: 18.17 ± 3.15 % ID/g
  % ID/g Heart: 2.14 ± 0.33 % ID/g
  % ID/g Kidney: 2.18 ± 0.43 % ID/g
  % ID/g Liver: 1.88 ± 0.34 % ID/g
  % ID/g Lung: 1.65 ± 0.11 % ID/g
  % ID/g Muscle: 0.92 ± 0.15 % ID/g
  % ID/g Pancreas: 1.33 ± 0.28 % ID/g
  % ID/g Skin: 1.51 ± 0.53 % ID/g
  % ID/g Small intestine: 4.28 ± 1.18 % ID/g
  % ID/g Spleen: 2.88 ± 2.11 % ID/g
  % ID/g Stomach: 2.48 ± 0.88 % ID/g
  TBR Tumour-to-Blood Ratio: 12.19 ± 3.32
  TBoR Tumour-to-Bone Ratio: 7.13 ± 2.21
  TMR Tumour-to-Muscle Ratio: 14.46 ± 2.62
3 h p.i.
  % ID/g (tumour): 11.55±1.24 % ID/g
  % ID/g Blood: 0.80 ± 0.07 % ID/g
  % ID/g Bones: 3.27 ± 0.70 % ID/g
  % ID/g Brain: 1.37 ± 0.35 % ID/g
  % ID/g Ceacum: 10.79 ± 1.54 % ID/g
  % ID/g Colon + faeces: 8.09 ± 5.04 % ID/g
  % ID/g Eyes: 17.96 ± 2.73 % ID/g
  % ID/g Heart: 2.32 ± 0.50 % ID/g
  % ID/g Kidney: 2.19 ± 0.36 % ID/g
  % ID/g Liver: 1.99 ± 0.45 % ID/g
  % ID/g Lung: 1.60 ± 0.09 % ID/g
  % ID/g Muscle: 0.81 ± 0.10 % ID/g
  % ID/g Pancreas: 1.33 ± 0.35 % ID/g
  % ID/g Skin: 1.05 ± 0.12 % ID/g
  % ID/g Small intestine: 3.91 ± 1.05 % ID/g
  % ID/g Spleen: 1.87 ± 0.38 % ID/g
  % ID/g Stomach: 2.81 ± 2.23 % ID/g
  TBR Tumour-to-Blood Ratio: 14.43±1.75
  TBoR Tumour-to-Bone Ratio: 3.70 ± 1.17
  TMR Tumour-to-Muscle Ratio: 14.46±3.06
  in vivo defluorination: Partial in vivo defluorinations
